Experimental data taken from US6589564B2, “Use of magnesium based products for the treatment of neoplastic diseases” (priority 1994, dated 2003).
Where two headings read alike, the source gives them in different places.

Assays:
rheumatoid arthritis = conditions: for ESR: before therapy 55, normal range 1-15
Method: The magnesium therapy, that the patient started in a disease remission interval, consisted of daily administations of 6 g of magnesium pyrophosphate (equivalent to 489 mg of Mg^++, corresponding to 8.1 mg of Mg^++/kg body weight daily), by infusion in 500 cm^3 of physiologic solution. The infusion rate was adjusted to supply 80 mg of Mg^++ per hour for about 6 hours. Vitamin B6 was associated with magnesium in the 2.5:1 ratio, i.e. in an amount of 1200 mg daily in divided doses, in order to improve the magnesium uptake. Suitable analgesic and anti-inflammatory drugs (FANS) were prescribed to soothe the articulation pains
At this point the parenteral treatment was suspended and an oral therapy started with following dosage: 6 g of magnesium pyrophosphate daily in divided doses (i.e., 488 mg of Mg^++ daily, corresponding to 8.1 mg of Mg^++/kg body weight daily), as well as […] of vitamin B6 orally, also in divided doses.

ulcerative colitis = test system: ulcerative colitis
Method: The treatment comprised the parenteral administration of 6 g of magnesium pyrophosphate (489 mg of Mg^++, i.e., 8.89 mg of Mg^++/kg body weight daily), diluted into 500 cm^3 of physiologic solution, and the infusion was adjusted to supply the patient with 80 mg of Mg^++ per hour for 6 hours. […] of orally administered vitamin B6 were added in divided doses, to improve the magnesium uptake.

[1] = test system: infiltrating ulcerated adenocarcinoma (rectum)
Method: The patient refused any therapy for a month and then started a magnesium treatment consisting of a daily administration of 500 cm^3 of physiologic solution, containing 6 g of magnesium pyrophosphate (i.e., 489 mg of Mg^++ daily, that is equivalent to about 9.7 mg of Mg^++/kg body weight daily). The infusion rate was adjusted to supply the patient with 80 mg of magnesium ions per hour for about 6 hours. Furthermore, a daily amount of 1200 mg of vitamin B6 was associated (vitamin B6:Mg^++=2.5:1), in four separate administrations.
After one month of intravenous treatment, the therapy was continued orally, with 6 g of magnesium pyrophosphate daily (i.e., 488 mg of Mg^++ daily, corresponding to 9.7 mg of Mg^++/kg body weight daily), associated with […] of vitamin B6 in divided doses.

pemphigus vulgaris = test system: pemphigus vulgaris
Method: A patient was affected since three years by a pemphigus vulgaris, that caused soft vesicles to form on the patient's face and scalp. The vesicles broke after forming, and gave rise to circular erosions, that later were covered by scabs. Then, the said lesions appeared also on the patient's trunk and oral mucosa.
The therapy consisted in daily administering 9 g of magnesium pyrophosphate (i.e., 733 mg of Mg^++, corresponding to 9.16 mg/kg body weight daily of magnesium ions), dissolved into 500 cm^3 of a physiologic solution. The infusion rate was adjusted to supply 80 mg of Mg^++ per hour for about 9 hours.
Moreover, 1800 mg of vitamin B6 were administered daily, in divided doses.

[2] = end of fourth month, negative normally, before therapy positive
[3] = after one further month (three months)

O=P([O-])([O-])OP(=O)([O-])[O-].[Mg+2].[Mg+2] [magnesium pyrophosphate]
ESR (rheumatoid arthritis; end of first month, 6 g/day by infusion with vitamin B6): 42 | articulation pains and swelling (rheumatoid arthritis; end of first month, 6 g/day by infusion with vitamin B6 and FANS): less pains at affected articulations, which appeared less swollen | articulation tumescence, pains, morning rigidity (rheumatoid arthritis; end of fourth month of treatment (1 month i.v., then oral 6 g/day)): any articulation tumescence had disappeared and the patient referred neither articulation pains nor morning articulation rigidity | ANA antibody research (rheumatoid arthritis; [2]): negative | Waaler-Rose's reaction (rheumatoid arthritis; [2]): negative | reactive C protein (rheumatoid arthritis; end of fourth month, normal range 0-6, before therapy 15): 2 | rheuma test (rheumatoid arthritis; end of fourth month, normal range 0-40, before therapy 105): 21 | ESR (rheumatoid arthritis; end of fourth month): 10 | fibrinogen (rheumatoid arthritis; end of fourth month, normal range 123-370, before therapy 550): 232 | colonscopy, last 50 cm of the colon mucosa (ulcerative colitis; [3]): appeared normal | histology test of colon mucosa and submucosa (ulcerative colitis; [3]): colon mucosa and submucosa were normal and any inflammatory infiltration had disappeared | abdominal pains and diarrhoea (ulcerative colitis; after one further month (three months), same dosage): no more abdominal pains nor diarrhoea | colonscopy, last 50 cm of the colon mucosa (ulcerative colitis; end of two month treatment): neither hyperaemic nor bleeding; and absence of microulcerative lesions | diarrhoea, daily episodes (ulcerative colitis; end of two month treatment): two | histology test of colon mucosa (ulcerative colitis; end of two month treatment): still showed the presence of inflammatory neutrophil infiltration in the colon mucosa | abdominal pains (ulcerative colitis; end of two month treatment, 6 g/day parenteral with oral vitamin B6): no abdominal pains | tumor area at rectoscopy and tomography ([1]; end of fifth month of treatment): totally disappeared | tumor area ([1]; end of fourth month of therapy): further reduced | diameter of residual tumor area ([1]; end of third month of magnesium therapy, point at 3 o'clock): 1.5 cm | tumoral tissue at rectum investigation and rectoscopy ([1]; end of third month, 6 g/day, 1 month i.v. then oral, with vitamin B6 1200 mg/day): had disappeared from the whole rectum circumference, except from a point at 3 o'clock | articular pains and cutaneous lesions (pemphigus vulgaris; after one month, 9 g/day by infusion with vitamin B6): less articular pains and cutaneous lesions onto non-erythematous skin | scab lesions and articulation pains (pemphigus vulgaris; end of fourth month (1 month i.v., then oral 9 g/day with vitamin B6)): the trunk and limb scab lesions had disappeared, while scarce lesions were still present on the scalp | articulation pains and skin lesions (pemphigus vulgaris; end of sixth month of treatment): the articulation pains had disappeared at all, as well as any skin lesions
